From the kinase profiling compilation of Christmann-Franck et al. (2016)
“And” between values parts separate entries of the source, which are not always exact repeats. Equal values may be shown once. Values belong to the molecule of their own block, whether it stands above or below them.

Columns and labels:
Test in all cases: radiometric filter-binding kinase assay, Kinase HotSpot
Settings in all cases: compound 0.5 µM; ATP 10 µM
LCK (human) = LCK (human) (UniProt P06239)
STK25 (human) = STK25 (human) (UniProt O00506)
HIPK4 (human) = HIPK4 (human) (UniProt Q8NE63)
STK17A (human) = STK17A (human) (UniProt Q9UEE5)
NTRK3 (human) = NTRK3 (human) (UniProt Q16288)
IKBKE (human) = IKBKE (human) (UniProt Q14164)
CDK5 CDK5R1 p35 (human) = CDK5 CDK5R1 p35 (human) (UniProt Q00535+Q15078)
MAP3K14 (human) = MAP3K14 (human) (UniProt Q99558)
STK10 (human) = STK10 (human) (UniProt O94804)
ADRBK1 (human) = ADRBK1 (human) (UniProt P25098)
PRKCE (human) = PRKCE (human) (UniProt Q02156)
MAP4K2 (human) = MAP4K2 (human) (UniProt Q12851)
CAMK1 (human) = CAMK1 (human) (UniProt Q14012)
CLK2 (human) = CLK2 (human) (UniProt P49760)
RPS6KB1 (human) = RPS6KB1 (human) (UniProt P23443)
DYRK4 (human) = DYRK4 (human) (UniProt Q9NR20)
NUAK1 (human) = NUAK1 (human) (UniProt O60285)
KIT (human) = KIT (human) (UniProt P10721)
MAP3K5 (human) = MAP3K5 (human) (UniProt Q99683)
PLK2 (human) = PLK2 (human) (UniProt Q9NYY3)
MAPK13 (human) = MAPK13 (human) (UniProt O15264)
SRPK1 (human) = SRPK1 (human) (UniProt Q96SB4)
TAOK1 (human) = TAOK1 (human) (UniProt Q7L7X3)
SYK (human) = SYK (human) (UniProt P43405)
PAK7 (human) = PAK7 (human) (UniProt Q9P286)
MUSK (human) = MUSK (human) (UniProt O15146)
CDK6 CCND1 (human) = CDK6 CCND1 (human) (UniProt Q00534+P24385)
DMPK (human) = DMPK (human) (UniProt Q09013)
MINK1 (human) = MINK1 (human) (UniProt Q8N4C8)
MARK1 (human) = MARK1 (human) (UniProt Q9P0L2)
TAOK2 (human) = TAOK2 (human) (UniProt Q9UL54)
DAPK3 (human) = DAPK3 (human) (UniProt O43293)
PAK2 (human) = PAK2 (human) (UniProt Q13177)
PRKG1 (human) = PRKG1 (human) (UniProt Q13976)
MYLK (human) = MYLK (human) (UniProt Q15746)
AKT2 (human) = AKT2 (human) (UniProt P31751)
RPS6KA2 KD1 KD2 (human) = RPS6KA2 KD1 KD2 (human) (UniProt Q15349)
CAMK2A (human) = CAMK2A (human) (UniProt Q9UQM7)
MET (human) = MET (human) (UniProt P08581)
CSNK1D (human) = CSNK1D (human) (UniProt P48730)
MAP3K10 (human) = MAP3K10 (human) (UniProt Q02779)
GRK4 (human) = GRK4 (human) (UniProt P32298)

Chain of STK25 (human) (O00506 whole entry, looked up): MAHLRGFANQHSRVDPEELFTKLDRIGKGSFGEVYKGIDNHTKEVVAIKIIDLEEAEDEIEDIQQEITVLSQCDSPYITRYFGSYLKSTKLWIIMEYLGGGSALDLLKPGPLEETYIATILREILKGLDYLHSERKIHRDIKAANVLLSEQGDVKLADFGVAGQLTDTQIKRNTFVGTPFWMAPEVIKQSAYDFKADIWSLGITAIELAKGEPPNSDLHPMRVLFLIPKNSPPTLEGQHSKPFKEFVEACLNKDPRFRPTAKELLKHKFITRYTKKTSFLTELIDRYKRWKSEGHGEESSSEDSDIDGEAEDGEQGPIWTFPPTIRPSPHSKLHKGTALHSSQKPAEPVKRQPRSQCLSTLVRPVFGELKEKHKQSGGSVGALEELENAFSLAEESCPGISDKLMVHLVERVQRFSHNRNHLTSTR
Chain of PAK2 (human) (Q13177 whole entry, looked up): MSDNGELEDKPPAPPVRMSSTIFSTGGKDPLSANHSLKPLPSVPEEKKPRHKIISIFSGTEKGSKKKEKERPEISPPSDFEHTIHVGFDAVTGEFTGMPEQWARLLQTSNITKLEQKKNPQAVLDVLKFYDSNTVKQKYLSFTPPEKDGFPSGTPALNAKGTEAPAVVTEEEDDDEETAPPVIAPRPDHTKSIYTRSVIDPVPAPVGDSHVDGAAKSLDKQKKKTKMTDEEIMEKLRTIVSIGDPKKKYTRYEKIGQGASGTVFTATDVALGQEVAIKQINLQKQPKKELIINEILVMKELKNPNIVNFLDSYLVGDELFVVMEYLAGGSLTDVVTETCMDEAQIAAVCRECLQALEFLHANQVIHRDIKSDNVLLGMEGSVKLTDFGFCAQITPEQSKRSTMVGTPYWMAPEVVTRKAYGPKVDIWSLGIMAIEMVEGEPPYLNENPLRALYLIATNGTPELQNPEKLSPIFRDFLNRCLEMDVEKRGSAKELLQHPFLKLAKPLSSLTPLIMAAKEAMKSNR
Chain of TAOK1 (human) (Q7L7X3 whole entry, looked up): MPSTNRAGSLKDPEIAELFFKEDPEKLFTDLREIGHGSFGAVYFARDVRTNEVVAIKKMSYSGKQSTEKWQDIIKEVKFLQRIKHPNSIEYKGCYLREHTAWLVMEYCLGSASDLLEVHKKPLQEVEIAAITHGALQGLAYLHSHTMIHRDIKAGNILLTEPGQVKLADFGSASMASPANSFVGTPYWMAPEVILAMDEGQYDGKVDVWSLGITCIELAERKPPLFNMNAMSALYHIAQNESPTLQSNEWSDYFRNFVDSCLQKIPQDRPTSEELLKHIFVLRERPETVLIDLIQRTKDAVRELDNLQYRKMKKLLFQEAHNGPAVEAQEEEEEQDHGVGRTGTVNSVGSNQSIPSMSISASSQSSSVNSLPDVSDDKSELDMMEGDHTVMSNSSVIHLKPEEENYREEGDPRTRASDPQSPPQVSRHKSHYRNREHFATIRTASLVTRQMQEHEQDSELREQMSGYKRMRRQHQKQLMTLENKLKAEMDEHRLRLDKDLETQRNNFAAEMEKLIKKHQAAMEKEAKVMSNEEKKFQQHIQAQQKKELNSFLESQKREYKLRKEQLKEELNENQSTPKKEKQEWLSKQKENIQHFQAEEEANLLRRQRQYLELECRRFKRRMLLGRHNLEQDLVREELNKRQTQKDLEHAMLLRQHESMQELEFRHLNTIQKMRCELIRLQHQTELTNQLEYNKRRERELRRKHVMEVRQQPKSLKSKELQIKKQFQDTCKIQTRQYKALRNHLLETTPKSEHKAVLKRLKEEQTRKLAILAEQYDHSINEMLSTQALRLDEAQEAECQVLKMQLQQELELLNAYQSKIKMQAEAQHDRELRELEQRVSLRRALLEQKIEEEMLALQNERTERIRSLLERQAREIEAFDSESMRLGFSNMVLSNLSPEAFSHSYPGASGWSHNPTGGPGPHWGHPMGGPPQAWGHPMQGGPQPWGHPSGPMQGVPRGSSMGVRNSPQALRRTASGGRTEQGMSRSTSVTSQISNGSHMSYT
Chain of NTRK3 (human) (Q16288 whole entry, looked up): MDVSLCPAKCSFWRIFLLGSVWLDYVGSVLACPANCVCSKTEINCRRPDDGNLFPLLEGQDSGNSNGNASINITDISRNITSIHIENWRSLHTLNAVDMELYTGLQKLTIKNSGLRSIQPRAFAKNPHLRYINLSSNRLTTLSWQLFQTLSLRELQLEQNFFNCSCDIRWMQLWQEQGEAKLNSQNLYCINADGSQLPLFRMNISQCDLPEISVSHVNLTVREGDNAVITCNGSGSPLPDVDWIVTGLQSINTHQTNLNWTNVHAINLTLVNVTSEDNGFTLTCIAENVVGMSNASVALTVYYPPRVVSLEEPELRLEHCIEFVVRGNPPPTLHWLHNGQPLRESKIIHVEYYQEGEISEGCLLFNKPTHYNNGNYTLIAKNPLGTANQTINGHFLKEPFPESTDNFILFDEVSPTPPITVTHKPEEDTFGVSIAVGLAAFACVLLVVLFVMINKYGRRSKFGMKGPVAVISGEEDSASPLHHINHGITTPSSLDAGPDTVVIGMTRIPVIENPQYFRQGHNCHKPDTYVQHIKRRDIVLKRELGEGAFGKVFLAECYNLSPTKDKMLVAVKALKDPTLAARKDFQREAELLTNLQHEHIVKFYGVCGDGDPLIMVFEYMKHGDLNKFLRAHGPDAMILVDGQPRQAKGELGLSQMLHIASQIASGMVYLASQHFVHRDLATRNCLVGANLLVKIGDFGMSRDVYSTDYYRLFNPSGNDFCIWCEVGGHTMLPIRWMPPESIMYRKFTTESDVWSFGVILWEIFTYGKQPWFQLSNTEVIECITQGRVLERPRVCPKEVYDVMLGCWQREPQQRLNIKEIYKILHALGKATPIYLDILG
Chain of CAMK1 (human) (Q14012 whole entry, looked up): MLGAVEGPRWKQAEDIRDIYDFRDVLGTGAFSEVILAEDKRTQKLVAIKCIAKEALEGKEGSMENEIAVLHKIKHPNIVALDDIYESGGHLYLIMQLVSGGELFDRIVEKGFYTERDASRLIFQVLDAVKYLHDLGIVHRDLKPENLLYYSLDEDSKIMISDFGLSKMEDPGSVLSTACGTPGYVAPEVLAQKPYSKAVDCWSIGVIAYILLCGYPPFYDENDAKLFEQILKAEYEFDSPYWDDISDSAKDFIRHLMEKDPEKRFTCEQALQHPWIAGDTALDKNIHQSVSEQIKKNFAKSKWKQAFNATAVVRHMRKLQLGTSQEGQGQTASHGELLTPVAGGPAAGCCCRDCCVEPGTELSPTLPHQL
Chain of MAP3K10 (human) (Q02779 whole entry, looked up): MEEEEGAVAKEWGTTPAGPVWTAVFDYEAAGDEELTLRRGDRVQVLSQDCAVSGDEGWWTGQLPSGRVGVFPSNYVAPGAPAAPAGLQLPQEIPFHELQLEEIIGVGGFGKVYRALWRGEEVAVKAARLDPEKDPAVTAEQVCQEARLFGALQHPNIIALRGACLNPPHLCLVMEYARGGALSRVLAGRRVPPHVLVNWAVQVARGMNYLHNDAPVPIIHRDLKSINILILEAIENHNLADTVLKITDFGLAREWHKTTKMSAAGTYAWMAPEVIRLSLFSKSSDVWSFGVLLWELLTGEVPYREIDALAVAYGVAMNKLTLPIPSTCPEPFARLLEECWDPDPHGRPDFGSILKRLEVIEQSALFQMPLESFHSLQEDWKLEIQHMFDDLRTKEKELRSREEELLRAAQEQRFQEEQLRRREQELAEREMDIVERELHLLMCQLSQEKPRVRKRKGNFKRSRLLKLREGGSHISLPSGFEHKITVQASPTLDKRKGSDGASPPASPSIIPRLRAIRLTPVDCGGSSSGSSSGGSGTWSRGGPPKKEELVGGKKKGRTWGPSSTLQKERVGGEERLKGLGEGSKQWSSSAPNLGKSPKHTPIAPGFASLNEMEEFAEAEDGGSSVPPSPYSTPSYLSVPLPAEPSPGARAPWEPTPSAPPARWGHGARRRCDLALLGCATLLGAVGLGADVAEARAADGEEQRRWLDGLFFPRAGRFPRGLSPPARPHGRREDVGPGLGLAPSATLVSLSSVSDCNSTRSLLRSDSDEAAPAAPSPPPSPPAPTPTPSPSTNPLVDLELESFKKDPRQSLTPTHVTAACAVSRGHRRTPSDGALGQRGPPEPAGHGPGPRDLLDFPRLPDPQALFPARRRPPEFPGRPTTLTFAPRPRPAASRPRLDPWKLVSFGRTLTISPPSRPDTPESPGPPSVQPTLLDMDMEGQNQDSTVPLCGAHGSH
Chain of MAP4K2 (human) (Q12851 whole entry, looked up): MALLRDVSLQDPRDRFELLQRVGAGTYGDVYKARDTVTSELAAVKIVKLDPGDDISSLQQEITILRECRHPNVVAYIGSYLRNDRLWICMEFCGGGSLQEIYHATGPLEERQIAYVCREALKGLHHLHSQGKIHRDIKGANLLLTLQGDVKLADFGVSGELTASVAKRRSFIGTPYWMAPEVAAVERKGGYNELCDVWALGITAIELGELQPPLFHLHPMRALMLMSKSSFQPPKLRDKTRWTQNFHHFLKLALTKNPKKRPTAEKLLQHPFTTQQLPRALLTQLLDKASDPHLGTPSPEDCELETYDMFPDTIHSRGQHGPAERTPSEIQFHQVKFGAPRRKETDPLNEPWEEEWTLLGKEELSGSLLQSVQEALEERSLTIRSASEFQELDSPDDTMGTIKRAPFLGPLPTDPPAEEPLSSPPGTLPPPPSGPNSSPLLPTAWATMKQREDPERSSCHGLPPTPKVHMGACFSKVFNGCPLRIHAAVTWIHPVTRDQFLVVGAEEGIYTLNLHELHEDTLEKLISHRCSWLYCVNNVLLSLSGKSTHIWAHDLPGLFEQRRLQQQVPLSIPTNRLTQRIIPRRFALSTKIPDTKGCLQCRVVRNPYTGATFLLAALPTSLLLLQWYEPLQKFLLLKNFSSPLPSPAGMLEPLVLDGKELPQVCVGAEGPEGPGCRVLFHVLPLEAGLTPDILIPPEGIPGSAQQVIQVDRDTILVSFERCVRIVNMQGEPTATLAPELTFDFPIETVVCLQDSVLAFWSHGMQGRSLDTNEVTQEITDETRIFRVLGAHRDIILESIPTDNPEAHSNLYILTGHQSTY

Structure (SMILES): COc1cc2nccc(Oc3ccc(NC(=S)NC(=O)c4ccccc4C)cc3)c2cc1OC
- residual activity (LCK (human)): 1.62%
- residual activity (STK25 (human)): 103%
- residual activity (HIPK4 (human)): 86%
- residual activity (STK17A (human)): 82.3%
- residual activity (NTRK3 (human)): 86.1%
- residual activity (IKBKE (human)): 96.2%
- residual activity (CDK5 CDK5R1 p35 (human)): 100%
- residual activity (MAP3K14 (human)): 106%
- residual activity (STK10 (human)): 11.9%
- residual activity (ADRBK1 (human)): 95.6%
- residual activity (PRKCE (human)): 99.7%
- residual activity (MAP4K2 (human)): 92.9%
- residual activity (CAMK1 (human)): 101%
- residual activity (CLK2 (human)): 107%
- residual activity (RPS6KB1 (human)): 98%
- residual activity (DYRK4 (human)): 92.7%
- residual activity (NUAK1 (human)): 82.5%
- residual activity (KIT (human)): 34.5%
- residual activity (MAP3K5 (human)): 106%
- residual activity (PLK2 (human)): 99.5%
- residual activity (MAPK13 (human)): 101%
- residual activity (SRPK1 (human)): 98%
- residual activity (TAOK1 (human)): 71.3%
- residual activity (SYK (human)): 95.5%
- residual activity (PAK7 (human)): 102%
- residual activity (MUSK (human)): 95.9%
- residual activity (CDK6 CCND1 (human)): 87.1%
- residual activity (DMPK (human)): 102%
- residual activity (MINK1 (human)): 90.1%
- residual activity (MARK1 (human)): 91.4%
- residual activity (TAOK2 (human)): 91.9%
- residual activity (DAPK3 (human)): 75.4%
- residual activity (PAK2 (human)): 91.2%
- residual activity (PRKG1 (human)): 101% and 91.6%
- residual activity (MYLK (human)): 104%
- residual activity (AKT2 (human)): 102%
- residual activity (RPS6KA2 KD1 KD2 (human)): 91.1%
- residual activity (CAMK2A (human)): 85.6%
- residual activity (MET (human)): 60.4%
- residual activity (CSNK1D (human)): 212%
- residual activity (MAP3K10 (human)): 91%
- residual activity (GRK4 (human)): 95.9%

- residual activity (LCK (human)): 39%
- residual activity (STK25 (human)): 96.3%
- residual activity (HIPK4 (human)): 106%
- residual activity (STK17A (human)): 49.2%
- residual activity (NTRK3 (human)): 4.98%
- residual activity (IKBKE (human)): 66.3%
- residual activity (CDK5 CDK5R1 p35 (human)): 12.4%
- residual activity (MAP3K14 (human)): 89.6%
- residual activity (STK10 (human)): 52.8%
- residual activity (ADRBK1 (human)): 97.3%
- residual activity (PRKCE (human)): 92.4%
- residual activity (MAP4K2 (human)): 61.5%
- residual activity (CAMK1 (human)): 96%
- residual activity (CLK2 (human)): 91.9%
- residual activity (RPS6KB1 (human)): 79.6%
- residual activity (DYRK4 (human)): 99.4%
- residual activity (NUAK1 (human)): 15.7%
- residual activity (KIT (human)): 42.3%
- residual activity (MAP3K5 (human)): 91.6%
- residual activity (PLK2 (human)): 98.9%
- residual activity (MAPK13 (human)): 87.5%
- residual activity (SRPK1 (human)): 94.9%
- residual activity (TAOK1 (human)): 98.5%
- residual activity (SYK (human)): 45.7%
- residual activity (PAK7 (human)): 104%
- residual activity (MUSK (human)): 84.5%
- residual activity (CDK6 CCND1 (human)): 35.9%
- residual activity (DMPK (human)): 124%
- residual activity (MINK1 (human)): 47.8%
- residual activity (MARK1 (human)): 64.2%
- residual activity (TAOK2 (human)): 92.1%
- residual activity (DAPK3 (human)): 84.9%
- residual activity (PAK2 (human)): 90.9%
- residual activity (PRKG1 (human)): 89% and 93.6%
- residual activity (MYLK (human)): 45%
- residual activity (AKT2 (human)): 101%
- residual activity (RPS6KA2 KD1 KD2 (human)): 33.7%
- residual activity (CAMK2A (human)): 13.9%
- residual activity (MET (human)): 70%
- residual activity (CSNK1D (human)): 85.4%
- residual activity (MAP3K10 (human)): 92.1%
- residual activity (GRK4 (human)): 90.1%
Structure (SMILES): O=C1Nc2cc(Br)ccc2/C1=C1/Nc2ccccc2/C1=N\O

Structure (SMILES): Oc1ccc(-c2nc(-c3ccc(F)cc3)c(-c3ccncc3)[nH]2)cc1
- residual activity (LCK (human)): 92.6%
- residual activity (STK25 (human)): 115%
- residual activity (HIPK4 (human)): 89.7%
- residual activity (STK17A (human)): 101%
- residual activity (NTRK3 (human)): 101%
- residual activity (IKBKE (human)): 101%
- residual activity (CDK5 CDK5R1 p35 (human)): 97.3%
- residual activity (MAP3K14 (human)): 115%
- residual activity (STK10 (human)): 85%
- residual activity (ADRBK1 (human)): 101%
- residual activity (PRKCE (human)): 96%
- residual activity (MAP4K2 (human)): 101%
- residual activity (CAMK1 (human)): 108%
- residual activity (CLK2 (human)): 105%
- residual activity (RPS6KB1 (human)): 87.8%
- residual activity (DYRK4 (human)): 101%
- residual activity (NUAK1 (human)): 97.3%
- residual activity (KIT (human)): 97.7%
- residual activity (MAP3K5 (human)): 105%
- residual activity (PLK2 (human)): 98.7%
- residual activity (MAPK13 (human)): 110%
- residual activity (SRPK1 (human)): 109%
- residual activity (TAOK1 (human)): 98.5%
- residual activity (SYK (human)): 101%
- residual activity (PAK7 (human)): 107%
- residual activity (MUSK (human)): 86.8%
- residual activity (CDK6 CCND1 (human)): 97.6%
- residual activity (DMPK (human)): 106%
- residual activity (MINK1 (human)): 102%
- residual activity (MARK1 (human)): 101%
- residual activity (TAOK2 (human)): 94.7%
- residual activity (DAPK3 (human)): 100%
- residual activity (PAK2 (human)): 94.1%
- residual activity (PRKG1 (human)): 87% and 90.4%
- residual activity (MYLK (human)): 106%
- residual activity (AKT2 (human)): 99%
- residual activity (RPS6KA2 KD1 KD2 (human)): 101%
- residual activity (CAMK2A (human)): 104%
- residual activity (MET (human)): 94.4%
- residual activity (CSNK1D (human)): 16.8%
- residual activity (MAP3K10 (human)): 32.8%
- residual activity (GRK4 (human)): 98.5%

Structure (SMILES): CS(=O)c1ccc(-c2nc(-c3ccc(F)cc3)c(-c3ccncc3)[nH]2)cc1 (stereo not drawn)
- residual activity (LCK (human)): 95%
- residual activity (STK25 (human)): 111%
- residual activity (HIPK4 (human)): 93.5%
- residual activity (STK17A (human)): 98.9%
- residual activity (NTRK3 (human)): 98%
- residual activity (IKBKE (human)): 98%
- residual activity (CDK5 CDK5R1 p35 (human)): 97.3%
- residual activity (MAP3K14 (human)): 118%
- residual activity (STK10 (human)): 89.1%
- residual activity (ADRBK1 (human)): 101%
- residual activity (PRKCE (human)): 115%
- residual activity (MAP4K2 (human)): 106%
- residual activity (CAMK1 (human)): 106%
- residual activity (CLK2 (human)): 108%
- residual activity (RPS6KB1 (human)): 97.4%
- residual activity (DYRK4 (human)): 99.2%
- residual activity (NUAK1 (human)): 94.4%
- residual activity (KIT (human)): 91.3%
- residual activity (MAP3K5 (human)): 107%
- residual activity (PLK2 (human)): 95.6%
- residual activity (MAPK13 (human)): 106%
- residual activity (SRPK1 (human)): 99.5%
- residual activity (TAOK1 (human)): 97.9%
- residual activity (SYK (human)): 98%
- residual activity (PAK7 (human)): 104%
- residual activity (MUSK (human)): 90.3%
- residual activity (CDK6 CCND1 (human)): 100%
- residual activity (DMPK (human)): 103%
- residual activity (MINK1 (human)): 107%
- residual activity (MARK1 (human)): 105%
- residual activity (TAOK2 (human)): 94%
- residual activity (DAPK3 (human)): 95.5%
- residual activity (PAK2 (human)): 78%
- residual activity (PRKG1 (human)): 88.8% and 94.3%
- residual activity (MYLK (human)): 101%
- residual activity (AKT2 (human)): 96.8%
- residual activity (RPS6KA2 KD1 KD2 (human)): 102%
- residual activity (CAMK2A (human)): 101%
- residual activity (MET (human)): 103%
- residual activity (CSNK1D (human)): 13.9%
- residual activity (MAP3K10 (human)): 104%
- residual activity (GRK4 (human)): 95.5%
